{"source": "patent US20150224190A1", "about": "“Combination of a phosphoinositide 3-kinase inhibitor and an inhibitor of the IL-8/CXCR interaction” (priority 2012, published 2015)", "key": {"[1]": {"tested_on": "JAK2/STAT5", "test": "JAK2/STAT5 phosphorylation in breast cancer cell lines (pJAK2 ELISA, pSTAT5 immunoblot)", "format": "cell-based, human", "conditions": "in vitro, after 4 hours-8 hours of treatment", "procedure": "(§1) MDA231, lung metastatic subline MDA231 LM2 (Minn et al., 2005) and SUM159 human breast cancer cells, as well as the Balb/c tumor-derived mammary cancer lines 4T-1 and 168FARN (Aslakson and Miller, 1992), were propagated as previously described. All other cell lines were obtained from and were cultured according to the protocols of ATCC. For treatment with inhibitors, cells were synchronized without serum overnight and then supplemented with culture medium containing the inhibitor(s). For experiments with doxycycline-inducible shRNAs, 500 ng/ml of doxycycline (Sigma) was added to the medium and experiments performed 48 h later. Cell viability assays, cell cycle and cell death measurements were performed at 0.5% FCS in order to avoid masking effects of growth factors present under full-serum conditions.\nCells for Western Blotting and ELISA were lysed with RIPA buffer. Xenograft lysates were prepared by lysing kryo-homogenized tumor powder in RIPA buffer (50 mM Tris-HCl pH 8, 150 mM NaCl, 1% NP-40, 0.5% sodium deoxycholate, 0.1% SDS. RIPA was supplemented with 1× protease inhibitor cocktail (Complete Mini, Roche), 0.2 mmol/L sodium-vanadate, 20 mM sodium fluoride and 1 mmol/L phenylmethylsulfonyl fluoride. For IRS-1 immunoprecipitation, cell lysates containing 500-1000 μg of protein were incubated with 1 μg of antibody and 20-50 μl of protein A-Sepharose beads (Zymed Laboratories, Inc., South San Francisco, Calif.) overnight at 4° C. Immunoprecipitates or whole cell lysates (30-80 μg) were subjected to SDS-PAGE, transferred to PVDF membranes (Immobilon-P, Millipore) and blocked for 1 hr at room temperature with 5% milk in PBS-0.1% Tween 20. Membranes were then incubated overnight with antibodies as indicated and exposed to secondary HRP-coupled anti-mouse or -rabbit antibody at 1:5-10,000 for 1 h at room temperature. Proteins were visualized using an ECL kit (Amersham) or an enhanced chemiluminescence detection system (Pierce Biotechnology). In each of the studies presented, the results shown are typical of at least three independent experiments. The following antibodies were used: anti-JAK2 (Cell Signaling), anti-JAK1 (Cell Signaling), anti-pSTAT5 (Tyr694, Cell Signaling), anti-STAT5 (STAT5A&B, Cell Signaling), anti-STAT3 (Cell Signaling), anti-pSTAT3 (Tyr705, Cell Signaling), anti-AKT pan (Cell Signaling), anti-pAKT (Thr308 and Ser473, Cell Signaling), anti-ERK2 (Santa Cruz), anti-S6 (Cell Signaling), anti-pS6 (Ser235/236, Cell Signaling), anti-PARP (Cell Signaling), anti-MCL1 (Cell Signaling), anti-BIM (EL, L and S isoforms, Cell Signaling), anti-pIGF1R/plnsR (Invitrogen), anti-IGF1Rbeta (Cell Signaling), anti-InsRbeta (Santa Cruz), anti-IRS1 (Upstate), anti-plRS1 (Tyr612, Calbiochem).\n(§2) For assessing pJAK2 levels, an ELISA assay (Tyr1007/1008, Invitrogen) was applied because of cross-reactivity of all pJAK2 antibodies tested. Interleukin-8 levels in RIPA lysates, cell culture supernatants and mouse tail vein blood plasma were measured by ELISA, as well (Biolegend). […]\n(§3) The present inventors applied single doses of COMPOUND A, a dual PI3K and mTOR inhibitor, and analyzed target inhibition and potential signaling pathway crosstalks after 2, 4, 8 and 20 h hours of treatment. […] While RAD001 readily activated JAK2 starting at 4 hours of treatment, they observed a later response with BKM120 treatment starting at 8 hours after adding the compound. […]"}, "[2]": {"tested_on": "pAKT", "test": "Target inhibition after single doses: pAKT levels in breast cancer lines", "format": "cell-based, human", "conditions": "up to 20 hours after treatment, MDA 468, MDA 231 LM2 and mouse 4T-1 breast cancer lines", "procedure": "as §1\n(§4) Cells for Western Blotting and ELISA were lysed with RIPA buffer. […]\nas §3"}, "[3]": {"tested_on": "JAK2/STAT5", "test": "JAK2/STAT5 phosphorylation in vivo models", "design": "species or system mice", "conditions": "after 8 hours of treatment", "procedure": "as §4, §2\nSCID/beige, SCID/NOD and Balb/c mice (Jackson Labs) were maintained under specific pathogen-free conditions and were used in compliance with protocols approved by the Institutional Animal Care and Use Committees of the FMI, which conform to institutional and national regulatory standards on experimental animal usage. […] Tumors were measured every 3 to 4 days with vernier calipers, and tumor volumes were calculated by the formula 0.5×(larger diameter)×(smaller diameter)^2. End point tumor sizes were analyzed for synergism using the formula AB/C<A/C×B/C, where C=tumor volume VHC, A=tumor volume compound 1, B=tumor volume compound 2, AB=tumor volume combination (Clarke, 1997). […]"}, "[4]": {"tested_on": "pSTAT3", "test": "pSTAT3 levels on treatment", "format": "cell-based", "conditions": "BEZ235 treatment", "procedure": "Cells for Western Blotting and ELISA were lysed with RIPA buffer. Xenograft lysates were prepared by lysing kryo-homogenized tumor powder in RIPA buffer (50 mM Tris-HCl pH 8, 150 mM NaCl, 1% NP-40, 0.5% sodium deoxycholate, 0.1% SDS. RIPA was supplemented with 1× protease inhibitor cocktail (Complete Mini, Roche), 0.2 mmol/L sodium-vanadate, 20 mM sodium fluoride and 1 mmol/L phenylmethylsulfonyl fluoride. For IRS-1 immunoprecipitation, cell lysates containing 500-1000 μg of protein were incubated with 1 μg of antibody and 20-50 μl of protein A-Sepharose beads (Zymed Laboratories, Inc., South San Francisco, Calif.) overnight at 4° C. Immunoprecipitates or whole cell lysates (30-80 μg) were subjected to SDS-PAGE, transferred to PVDF membranes (Immobilon-P, Millipore) and blocked for 1 hr at room temperature with 5% milk in PBS-0.1% Tween 20. […]\nas §3"}}}
{"smiles": "Cn1c(=O)n(-c2ccc(C(C)(C)C#N)cc2)c2c3cc(-c4cnc5ccccc5c4)ccc3ncc21", "note": "[COMPOUND A, 2-methyl-2-[4-(3-methyl-2-oxo-8-quinolin-3-yl-2,3-dihydro-imidazo[4,5-c]quinolin-1-yl)-phenyl]-propionitrile]", "values": [{"measurement": "pJAK2", "setting": "[1]", "result": "considerable upregulation"}, {"measurement": "pSTAT5", "setting": "[1]", "result": "considerable upregulation"}, {"measurement": "pAKT levels", "setting": "[2]", "result": "reduced"}, {"measurement": "pJAK2", "setting": "[3]", "result": "considerable upregulation"}, {"measurement": "pSTAT5", "setting": "[3]", "result": "considerable upregulation"}, {"measurement": "Levels of pSTAT3", "setting": "[4]", "result": "largely unaffected"}]}
